EP0494283B1, “1,4-BENZODIOXANE DERIVATIVES, PROCESS FOR THE PREPARATION THEREOF AND PHARMACEUTICAL COMPOSITIONS THEREFROM” (LABORATORIOS MENARINI S.A., priority 1990, dated 1992)
Counter-ions that a name gives are not always drawn. Like-named read-outs stand apart in the source and are kept apart here.

Assays:
Assay type in all cases: cell-based
[1] = system: HL-60 tumor cells; test: Cytotoxic activity, Trypan Blue exclusion; conditions: Homo sapiens, read-out: Cytotoxicity EC₅₀
Experimental: Suspensions of HL-60 Line cells, obtained starting from human promyelocyte leukemia, are incubated in 6-well culture plates for 24 hours at 37°C, at a concentration of 1 x 10⁶ cells/ml, in the presence of the test products, which have previously been dissolved in the culture medium. Cytotoxicity is measured by means of the Trypan Blue exclusion technique (Practical Immunology, pp 29-32, Oxford, England : Blackwell Scientific Publications, 1976).

[2] = system: PAF-induced platelet aggregation; test: Inhibition of PAF-induced platelet aggregation (aggregometry, washed platelets); conditions: Oryctolagus cuniculus, rabbit washed platelets, on the maximum aggregation values of the PAF standard curve, read-out: Paf-antagonism IC₅₀
Experimental: (§1) Platelets are prepared starting from blood samples obtained by means of a carotid cannula from male albino New Zealand rabbits (2-2.5 kg), subjected to anticoagulant treatment with sodium citrate dihydrate (3.2%) 1:10. Blood is centrifuged (150xg, 10 min, 22°C) to separate the platelet-rich plasma fraction (PRP) from erythrocytes. Platelets are separated from plasmatic components by serial washings and centrifugations (Blood, 1986, 62:337), thereafter they are suspended in a physiological buffer at a concentration of 5 x 10⁵/ml. A 400 µl volume of the above mentioned suspension is placed into the cuvette of a multicanal aggregometer (Aggrecoder HU) where it is kept at constant temperature and stirring. After stabilization, platelets are added with 50 µl of physiological buffer containing 100 µM acetylsalicylic acid and apirase 5 mg/ml, in order to block any non PAF-related platelet activation metabolic pathways. Subsequently the platelet suspensions are added with 50 µl of the different solutions to be tested. Changes in light transmission, due to platelet aggregation in the suspension, are recorded and expressed as percent platelet aggregation, according to the procedure by Born and Cross (J. Physiol., 1962, 162:67). Standard curve is performed with PAF within a concentration range of 0.1-1 nM.
Capability to inhibit PAF-induced platelet aggregation is evaluated by means of the aggregometry technique in suspensions of rabbit washed platelets, obtained by means of the same procedure as described in Example 32. For this purpose, the inhibition potency of the products under test, expressed as the corresponding IC₅₀, is evaluated on the maximum aggregation values obtained in PAF standard curve.

[3] = system: rabbit washed platelets; test: Platelet aggregating effect (aggregometry, washed platelets); conditions: Oryctolagus cuniculus, suspension of rabbit washed platelets, acetylsalicylic acid and apirase added, read-out: Aggregation EC₅₀
Experimental: as §1

[4] = HL-60 cells, 1 x 10⁶ cells/ml, 24 hours at 37°C

Row | SMILES | EC50 ([1]; HL-60, 24 h) [µM] | IC50 [2] [µM] | EC50 [1, 4] [µM] | further results
1 | C[N+](C)(C)CCCCCCCCCCOCC1COc2ccccc2O1 (centres unmarked) [Example 4, N-[10-[[(1,4-Benzodioxan-2-yl)methyl]oxy]decyl]-N,N,N-trimethylammonium bromide] | 70 | 130 | – | –
2 | C[N+](C)(C)CCCCCCCCCCCCCCCCOCC1COc2ccccc2O1 (centres unmarked) [Example 5, N-[16[[(1,4-Benzodioxan-2-yl)methyl]oxy]hexadecyl]-N,N,N-trimethylammonium bromide] | 18 | 20 | – | –
3 | C[N+](C)(C)CCCCCCOCCCCCCCCCCOCC1COc2ccccc2O1 (centres unmarked) [Example 6, N-[6-[[(10-[[1,4-Benzodioxan-2-yl)methyl]oxy]decyl]oxy]hexyl]-N,N,N-trimethylammonium bromide] | – | – | 11 | –
4 | C[N+](C)(C)CCCCCCCCCCOCCCCCCCCCCOCC1COc2ccccc2O1 (centres unmarked) [Example 7, N-[10-[[10-[[(1,4-Benzodioxan-2-yl)methyl]oxy]decyl]oxy]decyl]-N,N,N-trimethylammonium bromide] | – | – | 15 | –
5 | CC[N+](CC)(CC)CCCCOCC1COc2ccccc2O1 (centres unmarked) [Example 8, N-[4-[[(1,4-Benzodioxan-2-yl)methyl]oxy]butyl]-N,N,N-triethylammonium bromide] | – | – | – | EC50 [3]: > 190 µM
6 | CC[N+](CC)(CC)CCCCCCCCCCOCC1COc2ccccc2O1 (centres unmarked) [Example 10, N-[10-[[(1,4-Benzodioxan-2-yl)methyl]oxy]decyl]-N,N,N-triethylammonium bromide] | 30 | 90 | – | –
7 | c1ccc2c(c1)OCC(COCCCCCCCCCCN1CCCCC1)O2 (centres unmarked) [Example 15, N-[10-[[(1,4-Benzodioxan-2-yl)methyl]oxy]decyl]piperidine hydrochloride] | – | – | 20 | –
8 | c1ccc2c(c1)OCC(COCCCCN1CCOCC1)O2 (centres unmarked) [Example 16, N-[4-[[(1,4-Benzodioxan-2-yl)methyl]oxy]butyl]morpholine hydrochloride] | – | – | 18 | –
9 | c1ccc2c(c1)OCC(COCCCCCCCCCCN1CCOCC1)O2 (centres unmarked) [Example 19, N-[10-[[(1,4-Benzodioxan-2-yl)methyl]oxy]decyl]morpholine hydrochloride] | – | – | 30 | –
10 | C[N+]1(CCCCCOCC2COc3ccccc3O2)CCCCC1 (centres unmarked) [Example 21, N-[5-[[(1,4-Benzodioxan-2-yl)methyl]oxy]pentyl]-N-methylpiperidinium iodide] | – | – | – | EC50 [3]: > 190 µM
11 | C[N+]1(CCCCCCCCCCOCC2COc3ccccc3O2)CCCCC1 (centres unmarked) [Example 23, N-[10-[[(1,4-Benzodioxan-2-yl)methyl]oxy]decyl]-N-methylpiperidinium bromide] | 20 | 75 | – | –
12 | C[N+]1(CCCCCCCCCCCCCCCCOCC2COc3ccccc3O2)CCCCC1 (centres unmarked) [Example 24, N-[16-[[(1,4-Benzodioxan-2-yl)methyl]oxy]hexadecyl]-N-methylpiperidinium bromide] | – | – | 6 | –
13 | C[N+]1(CCCCCCOCCCCCCCCCCOCC2COc3ccccc3O2)CCCCC1 (centres unmarked) [Example 25, N-[6-[[(10-[[1,4-Benzodioxan-2-yl)methyl]oxy]decyl]oxy]hexyl]-N-methylpiperidinium bromide] | – | – | 3 | –
14 | C[N+]1(CCCCCCCCCCOCCCCCCCCCCOCC2COc3ccccc3O2)CCCCC1 (centres unmarked) [Example 26, N-[10-[[10-[[(1,4-Benzodioxan-2-yl)methyl]oxy]decyl]oxy]decyl]-N-methylpiperidinium bromide] | – | – | 28 | –
15 | C[N+]1(CCCCCCCCCCOCC2COc3ccccc3O2)CCOCC1 (centres unmarked) [Example 30, N-[10-[[(1,4-Benzodioxan-2-yl)methyl]oxy]decyl]-N-methylmorpholinium iodide] | 30 | 190 | – | –
